Measurements reported in the kinase profiling compilation of Christmann-Franck et al. (2016).

Tests used:
Assay in all cases: radiometric filter-binding kinase assay, Kinase HotSpot
Details in all cases: compound 0.5 µM; ATP 10 µM
[1] = system: FLT4 (human), P35916 [Q890H]
[2] = system: MAP2K6 (human), P52564 [S207E/T211E]
[3] = system: MKNK1 (human), Q9BUB5 [T385D; 165-205 del]
[4] = system: PRKCQ (human), Q04759 [P330L]
Chain of PRKCQ (human), Q04759 [P330L] (Q04759 whole entry P330L, looked up): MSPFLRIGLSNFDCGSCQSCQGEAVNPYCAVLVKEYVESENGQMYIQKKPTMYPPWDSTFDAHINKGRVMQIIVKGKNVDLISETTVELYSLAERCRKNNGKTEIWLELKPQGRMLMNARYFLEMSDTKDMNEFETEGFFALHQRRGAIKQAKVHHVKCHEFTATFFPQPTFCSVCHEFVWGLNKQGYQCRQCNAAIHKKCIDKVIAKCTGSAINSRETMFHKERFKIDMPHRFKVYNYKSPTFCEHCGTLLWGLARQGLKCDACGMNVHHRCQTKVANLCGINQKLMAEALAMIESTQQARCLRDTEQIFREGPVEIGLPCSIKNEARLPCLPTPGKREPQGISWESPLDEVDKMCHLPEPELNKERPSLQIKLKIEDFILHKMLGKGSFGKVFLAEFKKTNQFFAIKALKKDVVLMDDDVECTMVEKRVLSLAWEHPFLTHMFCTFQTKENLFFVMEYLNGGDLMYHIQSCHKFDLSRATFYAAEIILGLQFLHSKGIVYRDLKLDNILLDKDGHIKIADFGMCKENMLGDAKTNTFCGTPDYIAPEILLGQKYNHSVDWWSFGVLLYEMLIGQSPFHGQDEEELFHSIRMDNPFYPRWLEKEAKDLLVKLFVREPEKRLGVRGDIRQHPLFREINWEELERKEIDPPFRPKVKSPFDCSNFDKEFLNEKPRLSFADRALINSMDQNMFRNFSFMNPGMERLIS

Chain of FLT4 (human), P35916 [Q890H] (P35916 whole entry, looked up, stated change not applied): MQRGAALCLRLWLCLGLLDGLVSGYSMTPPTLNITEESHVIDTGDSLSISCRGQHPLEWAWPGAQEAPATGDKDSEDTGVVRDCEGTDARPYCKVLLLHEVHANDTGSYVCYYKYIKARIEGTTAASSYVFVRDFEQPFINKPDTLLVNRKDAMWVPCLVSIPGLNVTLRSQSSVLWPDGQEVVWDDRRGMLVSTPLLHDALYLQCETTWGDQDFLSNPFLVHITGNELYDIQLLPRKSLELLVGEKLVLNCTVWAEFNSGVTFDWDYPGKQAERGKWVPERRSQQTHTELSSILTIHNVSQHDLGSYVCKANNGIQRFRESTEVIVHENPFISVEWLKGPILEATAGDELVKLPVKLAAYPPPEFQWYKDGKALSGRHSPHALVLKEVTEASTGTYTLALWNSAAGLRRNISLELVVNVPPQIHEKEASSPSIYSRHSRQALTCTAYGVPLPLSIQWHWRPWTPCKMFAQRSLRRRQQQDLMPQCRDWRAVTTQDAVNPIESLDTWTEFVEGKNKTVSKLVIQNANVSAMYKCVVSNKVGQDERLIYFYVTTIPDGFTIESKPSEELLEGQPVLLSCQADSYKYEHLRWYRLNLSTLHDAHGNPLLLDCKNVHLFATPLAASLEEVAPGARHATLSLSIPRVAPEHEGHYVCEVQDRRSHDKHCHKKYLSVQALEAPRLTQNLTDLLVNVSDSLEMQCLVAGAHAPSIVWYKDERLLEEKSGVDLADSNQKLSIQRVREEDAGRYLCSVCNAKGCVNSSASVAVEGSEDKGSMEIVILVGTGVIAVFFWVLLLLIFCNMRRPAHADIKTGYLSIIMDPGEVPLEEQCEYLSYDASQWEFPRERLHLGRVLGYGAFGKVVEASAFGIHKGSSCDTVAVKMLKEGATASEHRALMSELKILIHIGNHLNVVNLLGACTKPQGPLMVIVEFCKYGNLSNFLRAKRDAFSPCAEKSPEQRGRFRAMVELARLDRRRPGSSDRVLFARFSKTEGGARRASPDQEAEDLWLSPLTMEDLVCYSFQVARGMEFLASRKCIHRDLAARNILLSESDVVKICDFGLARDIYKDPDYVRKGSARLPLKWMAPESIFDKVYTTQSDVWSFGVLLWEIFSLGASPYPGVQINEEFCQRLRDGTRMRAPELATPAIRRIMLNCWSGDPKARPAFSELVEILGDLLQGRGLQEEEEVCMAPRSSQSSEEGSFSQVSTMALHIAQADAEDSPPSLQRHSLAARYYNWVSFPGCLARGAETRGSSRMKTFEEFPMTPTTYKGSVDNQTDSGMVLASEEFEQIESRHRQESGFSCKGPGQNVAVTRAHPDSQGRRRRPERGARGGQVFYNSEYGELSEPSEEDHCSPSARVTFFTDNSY
Chain of MKNK1 (human), Q9BUB5 [T385D; 165-205 del] (Q9BUB5 whole entry, looked up, stated change not applied): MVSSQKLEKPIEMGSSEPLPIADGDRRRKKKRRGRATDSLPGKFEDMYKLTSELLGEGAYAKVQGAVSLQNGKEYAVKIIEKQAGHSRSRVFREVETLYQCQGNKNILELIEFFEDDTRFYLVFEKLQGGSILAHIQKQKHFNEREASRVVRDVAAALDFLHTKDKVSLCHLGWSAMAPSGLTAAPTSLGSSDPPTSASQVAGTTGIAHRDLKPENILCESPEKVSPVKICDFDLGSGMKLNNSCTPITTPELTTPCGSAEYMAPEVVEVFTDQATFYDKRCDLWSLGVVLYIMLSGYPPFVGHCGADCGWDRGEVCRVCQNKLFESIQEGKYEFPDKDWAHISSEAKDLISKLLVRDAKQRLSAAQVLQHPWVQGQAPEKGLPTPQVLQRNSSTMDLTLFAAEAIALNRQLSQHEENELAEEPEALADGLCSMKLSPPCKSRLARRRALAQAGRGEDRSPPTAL
Chain of MAP2K6 (human), P52564 [S207E/T211E] (P52564 whole entry S207E/T211E, looked up): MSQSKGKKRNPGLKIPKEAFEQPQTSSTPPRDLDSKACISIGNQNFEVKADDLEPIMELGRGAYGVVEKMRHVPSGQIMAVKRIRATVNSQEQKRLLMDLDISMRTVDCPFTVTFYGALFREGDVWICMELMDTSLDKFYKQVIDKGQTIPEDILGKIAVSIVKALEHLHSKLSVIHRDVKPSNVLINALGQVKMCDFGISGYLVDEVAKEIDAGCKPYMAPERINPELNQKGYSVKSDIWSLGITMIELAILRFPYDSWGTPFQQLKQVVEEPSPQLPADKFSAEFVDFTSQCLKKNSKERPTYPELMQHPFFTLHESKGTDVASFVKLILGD

SMILES | residual activity [1] | residual activity [2] | residual activity [3] | residual activity [4]
CCOc1cc2ncnc(Nc3cccc(Br)c3)c2cc1OCC | 88.1% | 92.6% | 46% | 89.2%
COc1cc2ncnc(N3CCN(C(=O)Nc4ccc(Oc5ccccc5)cc4)CC3)c2cc1OC | 101% | 96% | 94.9% | 97.3%
CC#CC(=O)Nc1cc2c(Nc3ccc(F)c(Cl)c3)ncnc2cn1 | 92.8% | 100% | 89.5% | 89.3%
Nc1ncnc2c1c(-c1ccc(Oc3ccccc3)cc1)cn2C1CCCC1 | 50.8% | 99.3% | 109% | 131%
O=C1NC(=O)C(c2cn(CCCO)c3ncccc23)=C1c1cnccn1 | 92.3% | 91.1% | 100% | 81.7%
CN([C@@H](Cc1ccc(OS(=O)(=O)c2cccc3cnccc23)cc1)C(=O)N1CCN(c2ccccc2)CC1)S(=O)(=O)c1cccc2cnccc12 | 90.5% | 104% | 106% | 108%
COc1cc2ncnc(Nc3ccc(O)c(Br)c3)c2cc1OC | 48.5% | 84.9% | 32.7% | 92.8%
Nc1nnc2[nH]c3ccccc3nc1-2 | 117% | 100% | 97.4% | 89.7%
c1ccc(-c2n[nH]cc2-c2ccnc3ccccc23)nc1 | 92.2% | 138% | 75.9% | 115%
O=c1c2ccccc2[nH]c(=S)n1CCN1CCC(=C(c2ccc(F)cc2)c2ccc(F)cc2)CC1 | 107% | 102% | 101% | 92.2%
Nc1ncnc2c1cnn2-c1ccccc1 | 108% | 90.8% | 81.4% | 102%
Clc1ccc(Nc2nnc(Cc3ccncc3)c3ccccc23)cc1 | 62.8% | 95.3% | 98.5% | 73.5%
CCN1/C(=C/C(C)=O)Sc2ccc(OC)cc21 | 99.7% | 86.7% | 119% | 95.9%
Nc1nc(Nc2ccc(S(N)(=O)=O)cc2)nn1C(=S)Nc1c(F)cccc1F | 3.75% | 62.7% | 23.4% | 15.1%
Nc1nc(Nc2ccc(S(N)(=O)=O)cc2)nn1C(=O)c1c(F)cccc1F | 38% | 90.5% | 90.9% | 114%
NC(=O)c1ccc(N(C(N)=O)c2c(F)cccc2F)nc1-c1ccc(F)cc1F | 97.5% | 96.5% | 91.4% | 85.1%
O=S(=O)(NCCNC/C=C/c1ccc(Br)cc1)c1cccc2cnccc12 | 108% | 81.3% | 93.4% | 104%
O=C1NC(=O)C(c2cn(CCCn3ccnc3)c3ccccc23)=C1Nc1ccccc1 | 95.8% | 103% | 99.3% | 37.2%
O=C(CCCc1ccc(-c2ccccc2F)cc1)Nc1ccc(O)cc1 | 99.3% | 97.5% | 111% | 107%
Cc1nc2cc3nc(-c4cccs4)cnc3cc2n1C | 86.2% | 104% | 92.7% | 100%
O=c1[nH]c2ccccc2n1C1CCN(Cc2ccc(-c3nc4cc5[nH]cnc5cc4nc3-c3ccccc3)cc2)CC1 | 98.7% | 101% | 104% | 96.4%
O=C1NC(=O)/C(=C/c2ccc3c(c2)OC(F)(F)O3)S1 | 107% | 92.3% | 93.1% | 101%
CCC(=O)Nc1ccc2ncnc(Nc3cccc(Br)c3)c2c1 | 91.5% | 94.5% | 82.8% | 96.3%
N#C/C(=C1/Nc2ccccc2S1)c1ccnc(NCCc2cccnc2)n1 | 86.1% | 92.5% | 90.2% | 104%
Nc1n[nH]c2nnc(-c3c(-c4ccccc4)nn4ccccc34)cc12 | 89.9% | 90.9% | 98.5% | 79.9%
CO[C@H]1CC2CC[C@@H](C)[C@@](O)(O2)C(=O)C(=O)N2CCCC[C@H]2C(=O)OC([C@H](C)C[C@@H]2CC[C@@H](O)[C@H](OC)C2)CC(=O)[C@H](C)/C=C(\C)[C@@H](O)[C@@H](OC)C(=O)[C@H](C)C[C@H](C)/C=C/C=C/C=C/1C (stereo partly drawn) | 116% | 107% | 101% | 126%

SMILES | residual activity [1] | residual activity [2] | residual activity [3] | residual activity [4]
O=C1NC(=O)c2c1c1c3ccccc3n3c1c1c2c2ccccc2n1C1CCC3O1 | 4.97% | 19.3% | 48.6% | 43.2%
Cc1ccc(NC2=CC(=O)c3sc(C)nc3C2=O)cc1 | 95.7% | 90.4% | 117% | 93%
Cc1ccc(S(=O)(=O)/C=C/C#N)cc1 | 96.5% | 98.4% | 99.4% | 100%
CCCNC(=O)Nc1ccc(Oc2ncnc3cc(OC)c(OC)cc23)cc1Cl | 38.5% | 106% | 95.2% | 102%
Nc1ccc2ncnc(NCCc3ccc(Oc4ccccc4)cc3)c2c1 | 101% | 96.6% | 106% | 108%
Nc1cccc(-c2cc3c(Oc4cccc(O)c4)ncnc3[nH]2)c1 | 15.8% | 90.1% | 87.6% | 64.5%
CS(=O)c1ccc(-c2nc(-c3ccc(F)cc3)c(-c3ccncc3)[nH]2)cc1 (stereo not drawn) | 119% | 102% | 98.5% | 111%
CCn1cnc2c(Nc3cccc(Cl)c3)nc(N[C@@H]3CCCC[C@@H]3N)nc21 | 105% | 100% | 101% | 93.3%
O=C(Nc1ccc(Cl)cc1)c1ccccc1NCc1ccncc1 | 44.8% | 117% | 118% | 110%
COc1cc2c(Nc3ccc(Br)cc3F)ncnc2cc1OCC1CCN(C)CC1 | 16.1% | 96.2% | 49.3% | 100%
FC(F)(F)c1ccc(/C=C/c2nc(COc3ccc(CCCCn4ccnn4)cc3)co2)cc1 | 98% | 100% | 89.5% | 99.9%
Nc1nccc(-c2c(-c3ccc(F)cc3)ncn2C2CCNCC2)n1 | 116% | 106% | 99% | 107%
CCCCc1c(-c2ccc(O)cc2)[nH]c2nccnc12 | 77.4% | 100% | 94.5% | 118%
O=C(O)/C=C/c1cc(Br)c(Br)c(Br)c1Br | 98.2% | 96.1% | 61.1% | 89.6%
O=C1NC(=O)C(c2c[nH]c3ccccc23)=C1c1c[nH]c2ccccc12 | 35.2% | 98% | 115% | 33.8%
Cn1cc(/C=C2\C(=O)Nc3ccc(S(N)(=O)=O)cc32)c2ccccc21 | 65.1% | 116% | 74.1% | 103%
O=c1cc(N2CCOCC2)oc2c(-c3ccccc3)cccc12 | 96.4% | 97.5% | 103% | 112%
CCN(CC)C(=O)c1ccc(Nc2nc(OCC3CCCCC3)c3nc[nH]c3n2)cc1 | 25.9% | 93.1% | 97.5% | 97.9%
N#CCCc1ccc2c(c1)-c1[nH]c3ccc([N+](=O)[O-])cc3c1CC(=O)N2 | 66.5% | 97.2% | 66.7% | 111%
CC[C@@H](CO)Nc1nc(NCc2ccccc2)c2ncn(C(C)C)c2n1 | 94% | 98.2% | 96.4% | 90%
Oc1ccc(-c2nc(-c3ccc(F)cc3)c(-c3ccncc3)[nH]2)cc1 | 101% | 109% | 102% | 115%
O=C1Cc2c([nH]c3ccc(Br)cc23)-c2ccccc2N1 | 78.7% | 95.3% | 98.4% | 114%
O=C1NC(=O)c2c1c1c3ccccc3[nH]c1c1[nH]c3cc(Br)ccc3c21 | 28% | 94.2% | 81.5% | 93.1%
CCN(CC)CCCCN1c2ccccc2Oc2ccc(Cl)cc21 | 98.8% | 102% | 95.6% | 97.5%
O=C1Nc2ccccc2/C1=C\c1c(Cl)[nH]c2ccccc12 | 108% | 93.4% | 105% | 91.7%
Cc1[nH]c(/C=C2\C(=O)Nc3ccc(S(=O)(=O)N(C)c4cccc(Cl)c4)cc32)c(C)c1C(=O)N1CCN(C)CC1 | 55.1% | 91.9% | 105% | 107%
